The results in this text go back to patent US12492200B2, “NLRP3 modulators” (INNATE TUMOR IMMUNITY, INC., priority 2020, dated 2025).

Common to all, as to format: cell-based
The target of one test is T1, NLRP3 (Homo sapiens, UniProt Q96P20).
T1 construct: host or cells: PMA-differentiated THP-1 cells
As to the kind of experiment: Measurement of IL-1β production (NLRP3 hIL1β EC50), PMA-differentiated THP-1 cells. Conditions: human IL-1β production; assayed using one or more of the described procedures. On the procedure:
THP-1 cells were purchased from the American Type Culture Collection and sub-cultured according to instructions from the supplier. Prior to experiments, cells were cultured in RPMI 1640 containing 10% heat inactivated FBS, penicillin (100 units/ml) and streptomycin (100 μg/ml), and maintained in log phase prior to experimental setup. Prior to the experiment THIP-1 were treated with PMA (Phorbol 12-myristate 13-acetate) (10 μg/ml) for 24 hours. The day of the experiment the media was removed and attaching cells were treated with trypsin for 2 minutes, cells were then collected, washed with PBS (phosphate buffer saline), spin down, resuspended in 2% heat inactivated FBS with RPMI at a concentration of 1×10^6 cells/ml, and 100 μl was plated in a 96 well plate. Compounds were dissolved in dimethyl sulfoxide (DMSO) and added to the culture medium to achieve desired concentration (e.g. 100, 30, 10, 3, 1, 0.3 or 0.1 μM). Cells were incubated with compounds for 4 hours. Cell free supernatant was collected and the production of IL-1β was evaluated by ELISA. A vehicle only control was run concurrently with each experiment. Final DMSO concentration was 1%.
THP-1 cells were purchased from the American Type Culture Collection and sub-cultured according to instructions from the supplier. Prior to experiments, cells were cultured in RPMI 1640 containing 10% heat inactivated FBS, penicillin (100 units/ml), streptomycin (100 μg/ml), HEPES (10 mM) and sodium pyruvate (1 mM) and maintained in log phase prior to experimental setup. Prior to the experiment, THP-1 cells were treated with PMA (Phorbol 12-myristate 13-acetate) (20 μg/ml) overnight. The day of the experiment, the media was removed and attached cells were treated with trypsin for 2 minutes, cells were then collected, washed with PBS (phosphate buffer saline), pelleted by centrifugation and resuspended in 2% heat inactivated FBS with RPMI at a concentration of 50,000 cells/well in a 384 well plate. Cell free supernatant was collected and the production of IL-1β was evaluated by ELISA. Compounds were dissolved in dimethyl sulfoxide (DMSO) and added to the culture medium to achieve desired concentration (e.g. 100, 30, 10, 3, 1, 0.3 or 0.1 μM). Cells were incubated with compounds for 2 hours. A vehicle only control was run concurrently with each experiment. Final DMSO concentration was 1%.
Serial dilutions of compounds in DMSO were added to low volume 384 well plates at 100 nl/well using an ECHO 550 acoustic dispenser (Labcyte) to achieve final starting concentration of 10 μM in assay.
THP-1 cells in RPMI (Gibco, 11875) media with 10% FBS at a density of 1×10^6 cell/ml in a T175 flask were treated with a final concentration of phorbol 12-myristate 13-acetate (PMA) (Sigma,P1585) of 50 ng/ml overnight at 37° C. at 5% CO2 for differentiation. Cells were harvested the next day after rinsing well with dPBS using 0.5% trypsin. A cell solution was prepared of 1×10^6 cells/ml for 50,000 cells in 50 μl/well in RPMI media with 2% FBS. Cells were plated using a multichannel pipette onto the compound dilutions in Greiner, 384 well, black clear bottom tissue culture treated plates (781090). The plates were incubated in 37° C. incubator at 5% CO2 for 2 hours.
After the 2 hour incubation, the cell plates were spun in the centrifuge for 5 minutes at 1200 rpm. Using the Felix (CyBio), 8 μl of the supernatant was transferred to 384 well, low volume, white proxy plates. (Perkin Elmer, 6008230). A human IL1beta hTRF kit was used to analyze the supernatant (CISBIO, 62HIL1BPEG). The kit instructions were followed for preparing the IL1Beta standard curve and then the antibodies from the kit were diluted 1:40 rather than 1:20 as kit instructed. Once combined, the antibodies were added across the plates, 5 μl/well. The plates were sealed and incubated at 4° C. overnight. The plates were then read on the Perkin Elmer EnVision at 665/615 nm using the hTRF laser.

The target in another test is T2, human TLR7 (Homo sapiens, UniProt Q9NYK1).
T2 construct: host or cells: HEK-Blue cells (human HEK) co-expressing TLR7 and an NF-kB/AP1-inducible SEAP reporter
T2 sequence (Q9NYK1 27-1049): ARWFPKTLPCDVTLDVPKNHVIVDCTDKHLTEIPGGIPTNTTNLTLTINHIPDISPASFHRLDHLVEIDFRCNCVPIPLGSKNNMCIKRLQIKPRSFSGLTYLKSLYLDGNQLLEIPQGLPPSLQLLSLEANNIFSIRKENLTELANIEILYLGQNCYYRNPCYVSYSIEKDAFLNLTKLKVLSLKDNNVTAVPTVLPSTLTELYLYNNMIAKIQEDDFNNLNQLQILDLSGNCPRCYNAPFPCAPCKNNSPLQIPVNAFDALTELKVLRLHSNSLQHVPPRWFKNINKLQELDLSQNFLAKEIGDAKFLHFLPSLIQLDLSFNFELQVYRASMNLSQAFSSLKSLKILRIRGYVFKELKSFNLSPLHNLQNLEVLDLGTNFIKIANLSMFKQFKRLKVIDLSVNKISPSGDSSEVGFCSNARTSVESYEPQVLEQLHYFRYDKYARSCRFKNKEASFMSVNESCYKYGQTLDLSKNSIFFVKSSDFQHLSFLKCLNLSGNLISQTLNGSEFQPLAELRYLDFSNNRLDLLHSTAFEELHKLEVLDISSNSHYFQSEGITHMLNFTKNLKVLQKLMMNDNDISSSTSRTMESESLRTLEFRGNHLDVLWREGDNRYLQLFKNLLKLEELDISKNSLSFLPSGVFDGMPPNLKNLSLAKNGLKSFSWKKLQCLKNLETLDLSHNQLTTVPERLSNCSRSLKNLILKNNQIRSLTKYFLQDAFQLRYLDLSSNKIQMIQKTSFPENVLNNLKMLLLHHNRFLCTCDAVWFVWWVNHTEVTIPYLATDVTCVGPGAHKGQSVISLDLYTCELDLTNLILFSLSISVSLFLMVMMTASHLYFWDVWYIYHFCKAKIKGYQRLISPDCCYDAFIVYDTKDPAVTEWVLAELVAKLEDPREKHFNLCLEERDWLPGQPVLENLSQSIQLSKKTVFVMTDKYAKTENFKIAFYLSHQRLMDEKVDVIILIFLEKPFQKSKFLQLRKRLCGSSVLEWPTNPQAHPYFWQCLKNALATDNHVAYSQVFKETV
The test can be described thus: In vitro human TLR7 reporter assay (HEK-Blue cells, NF-kB/AP1-inducible SEAP). Conditions: TLR7 agonist EC50, HEK-Blue TLR7 NF-kB-SEAP reporter cells. On the procedure:
(§1) Logarithmically-growing human HEK-Blue cells co-expressing a TLR7 or TLR8 gene and a NF-kB/AP1-inducible SEAP (secreted embryonic alkaline phosphatase; Invivogen, San Diego, CA) reporter gene are added to individual wells of a 384-well plate (15,000 cells per 20 μL per well) and maintained for 24 h at 37° C., 5% CO2. Test compounds or DMSO are distributed to separate wells the next day using acoustic liquid handling technology (100 nL per well) and cells are subsequently incubated for 18 h at 37° C., 5% CO2. Cellular SEAP production is measured using an Envision plate reader instrument thirty minutes after adding freshly-made Quanti-Blue reagent (prepared by following manufacturer instructions; Invivogen, San Diego, CA) to the HEK-Blue TLR Nf-kB-SEAP cell reactions. All EC50 values (half-maximal effective concentration) are determined using proprietary data analysis software. Normalized EC50 value=absolute value determined by setting 100% Ymax using a reference standard RLU (relative light unit) values from cells treated with 50 μM of the reference standard.
On the technique in general: A reporter such as luciferase makes a cellular process visible.

In a further test the target is T3, human TLR8 (Homo sapiens, UniProt Q9NR97).
T3 construct: host or cells: HEK-Blue cells (human HEK) co-expressing TLR8 and an NF-kB/AP1-inducible SEAP reporter
T3 sequence (Q9NR97 27-1041): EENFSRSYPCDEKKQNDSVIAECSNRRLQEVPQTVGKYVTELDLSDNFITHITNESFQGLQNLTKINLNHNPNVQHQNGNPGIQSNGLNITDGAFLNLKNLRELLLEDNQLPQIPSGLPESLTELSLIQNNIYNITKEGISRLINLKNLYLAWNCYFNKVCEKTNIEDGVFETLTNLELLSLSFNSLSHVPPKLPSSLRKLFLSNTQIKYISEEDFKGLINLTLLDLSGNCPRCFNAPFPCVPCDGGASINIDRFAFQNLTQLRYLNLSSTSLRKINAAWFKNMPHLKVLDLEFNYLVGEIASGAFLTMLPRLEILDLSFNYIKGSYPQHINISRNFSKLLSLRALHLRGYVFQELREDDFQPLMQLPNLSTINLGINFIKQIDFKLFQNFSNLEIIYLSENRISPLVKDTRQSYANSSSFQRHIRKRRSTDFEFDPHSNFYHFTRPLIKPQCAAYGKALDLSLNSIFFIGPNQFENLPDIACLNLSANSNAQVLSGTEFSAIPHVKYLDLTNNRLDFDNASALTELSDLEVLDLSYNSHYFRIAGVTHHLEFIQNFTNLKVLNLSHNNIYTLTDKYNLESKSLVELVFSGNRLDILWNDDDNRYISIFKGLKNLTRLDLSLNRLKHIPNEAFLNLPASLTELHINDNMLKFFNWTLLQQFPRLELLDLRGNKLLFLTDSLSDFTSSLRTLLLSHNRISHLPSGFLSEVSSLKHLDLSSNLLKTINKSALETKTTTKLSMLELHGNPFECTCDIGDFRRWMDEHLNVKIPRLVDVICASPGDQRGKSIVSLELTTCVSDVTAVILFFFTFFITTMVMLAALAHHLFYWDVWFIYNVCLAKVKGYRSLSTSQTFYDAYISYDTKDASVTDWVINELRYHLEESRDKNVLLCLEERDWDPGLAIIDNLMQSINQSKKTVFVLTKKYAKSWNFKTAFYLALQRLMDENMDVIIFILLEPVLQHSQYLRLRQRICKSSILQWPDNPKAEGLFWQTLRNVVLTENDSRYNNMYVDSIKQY
The test can be described thus: In vitro human TLR8 reporter assay (HEK-Blue cells, NF-kB/AP1-inducible SEAP). Conditions: TLR8 agonist EC50, HEK-Blue TLR8 NF-kB-SEAP reporter cells. On the procedure:
as §1

The structures appear in SMILES notation.

In general, EC50 refers to the concentration at which the effect is half-maximal.

T1 sequence (Q96P20 whole entry): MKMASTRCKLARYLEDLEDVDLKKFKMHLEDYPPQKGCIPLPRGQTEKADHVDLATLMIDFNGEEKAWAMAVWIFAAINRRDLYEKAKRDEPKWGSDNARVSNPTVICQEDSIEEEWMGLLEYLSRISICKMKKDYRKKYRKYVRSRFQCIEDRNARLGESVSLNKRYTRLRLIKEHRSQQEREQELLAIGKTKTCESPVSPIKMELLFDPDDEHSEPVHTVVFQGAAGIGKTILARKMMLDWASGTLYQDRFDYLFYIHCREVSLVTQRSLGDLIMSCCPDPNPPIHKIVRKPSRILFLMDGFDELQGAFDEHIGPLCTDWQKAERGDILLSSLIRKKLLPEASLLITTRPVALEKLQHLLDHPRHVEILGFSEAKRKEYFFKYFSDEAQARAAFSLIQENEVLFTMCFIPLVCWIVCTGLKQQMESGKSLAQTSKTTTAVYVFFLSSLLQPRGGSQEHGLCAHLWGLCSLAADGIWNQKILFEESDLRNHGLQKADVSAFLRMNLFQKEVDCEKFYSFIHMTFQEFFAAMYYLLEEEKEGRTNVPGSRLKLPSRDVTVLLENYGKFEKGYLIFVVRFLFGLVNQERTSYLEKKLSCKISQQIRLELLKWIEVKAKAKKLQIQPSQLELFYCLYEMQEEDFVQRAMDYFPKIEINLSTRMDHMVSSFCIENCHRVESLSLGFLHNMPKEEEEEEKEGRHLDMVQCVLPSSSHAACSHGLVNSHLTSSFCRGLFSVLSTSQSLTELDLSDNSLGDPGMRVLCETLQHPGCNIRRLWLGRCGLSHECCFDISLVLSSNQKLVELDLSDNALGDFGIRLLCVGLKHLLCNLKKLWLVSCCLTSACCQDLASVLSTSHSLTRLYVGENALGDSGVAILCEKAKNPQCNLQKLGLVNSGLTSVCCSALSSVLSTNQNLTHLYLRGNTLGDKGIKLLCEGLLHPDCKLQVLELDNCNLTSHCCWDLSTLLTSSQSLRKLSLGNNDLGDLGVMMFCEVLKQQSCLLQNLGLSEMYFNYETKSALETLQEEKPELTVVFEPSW

Consider `N#CC1(C(=O)N2CCC[C@H](c3nc4c(N)nc5cc(-c6cc[nH]n6)ccc5c4[nH]3)C2)CCCC1` [Example 39], for which the EC50 on NLRP3 came out at 2.5 µM; at human TLR7, 35 µM.
Consider `N#CC1(C(=O)N2CCC[C@@H](c3nc4c(N)nc5cc(-c6cc[nH]n6)ccc5c4[nH]3)C2)CCCC1` [Example 70], for which the half-maximal effective concentration (EC50) at NLRP3 stood at 3.9 µM; at human TLR7, 57 µM.
`CC(C)(C)OC(=O)N1CCC[C@H](c2nc3c(N)nc4cc(-c5cc[nH]n5)ccc4c3[nH]2)C1` [Example 1, tert-Butyl (S)-3-(4-amino-7-(1H-pyrazol-3-yl)-1H-imidazo[4,5-c]quinolin-2-yl)piperidine-1-carboxylate]: the values for the EC50 on NLRP3 and at human TLR8 were 0.33 µM and 10 µM, respectively.
The corresponding values for `CC(C)(C)OC(=O)N1CCC[C@@H](c2nc3c(N)nc4cc(-c5cc[nH]n5)ccc4c3[nH]2)C1` [Example 6, tert-Butyl (R)-3-(4-amino-7-(1H-pyrazol-3-yl)-1H-imidazo[4,5-c]quinolin-2-yl)piperidine-1-carboxylate] are 0.36 µM and 10 µM.
For `Nc1nc2cc(-c3cc[nH]n3)ccc2c2[nH]c([C@H]3CCCN(C(=O)Cc4ccccc4)C3)nc12` [Example 40], the EC50 on NLRP3 is 3.8 µM; at human TLR7 it was 58 µM.
Take `N#CC1(C(=O)N2CCC[C@H](c3nc4c(N)nc5cc(-c6cc[nH]n6)ccc5c4[nH]3)C2)CCCCC1` [Example 38]: the EC50 on NLRP3 stood at 2 µM; at human TLR8 it was 17 µM.
Turning to `N#CC1(C(=O)N2CCC[C@H](c3nc4c(N)nc5cc(-c6cc[nH]n6)ccc5c4[nH]3)C2)CC1` [Example 3, (S)-1-(3-(4-Amino-7-(1H-pyrazol-3-yl)-1H-imidazo[4,5-c]quinolin-2-yl)piperidine-1-carbonyl)cyclopropane-1-carbonitrile], the EC50 on NLRP3 worked out at 0.98 µM; at human TLR7, 0.62 µM.
Turning to `CC(C)CC(=O)N1CCC[C@H]1Cc1nc2c(N)nc3cc(-c4cc[nH]n4)ccc3c2[nH]1` [Example 87], the results for the EC50 at NLRP3 and on human TLR8 were 4.3 µM and 77 µM, respectively.
For `CC(C)(C)C(=O)N1CCC[C@H](c2nc3c(N)nc4cc(-c5cc[nH]n5)ccc4c3[nH]2)C1` [Example 28] the same measures were 1.2 µM and 47 µM.
At NLRP3, `Nc1nc2cc(-c3cc[nH]n3)ccc2c2[nH]c([C@@H]3CCN(C(=O)c4ccccc4)C3)nc12` [Example 77] displayed an EC50 of 4.1 µM.
Same read-out and setting: with `Nc1nc2cc(-c3cc[nH]n3)ccc2c2[nH]c(C[C@@H]3CCCN3)nc12` [Example 17, (S)-7-(1H-pyrazol-3-yl)-2-(pyrrolidin-2-ylmethyl)-1H-imidazo[4,5-c]quinolin-4-amine] the figure was 1.2 µM; with `Nc1nc2cc(-c3cc[nH]n3)ccc2c2[nH]c(C[C@H]3CCCN3C(=O)C3(C(F)(F)F)CC3)nc12` [Example 81], 4 µM.
Still for that read-out and setting: as for `Nc1nc2cc(-c3cc[nH]n3)ccc2c2[nH]c(C[C@H]3CCCN3C(=O)c3ccccc3)nc12` [Example 84], the figure is 2.5 µM.
